Data from US20250064808A1, “METHODS FOR THE TREATMENT OF NLRP3 RELATED DISORDERS” (priority 2022, published 2025).

Experiments:
[1] = test system: BMDM; test: extracellular (cell-free) mtDNA released by donor BMDM; type: cell-based, mouse; conditions: for amount of DNA released by LPS-primed donor BMDM challenged with the NLRP3 activator: 1500,000 donor cells per group, LPS-primed only approximately 0.1 μg
Protocol: Extracellular DNA of donor macrophages (1500,000 cells per group) was isolated using QIAamp Circulating Nucleic Acid Kit according to manufacturer's instructions and then eluted in 300 μL distilled H2O and quantified using spectrophotometric analysis at 260/280 nm with Nanodrop. […] Applicant used 5% of the prepared DNA for qPCR measurement of extracellular mtDNA and the remaining 95% were added to the recipient BMDM for analyzing the paracrine immunostimulatory effects.

[2] = test system: mPTP; test: calcein-quenching assay for mPTP opening in BMDM; type: cell-based; conditions: for induction of mPTP opening by mtROS generator: LPS-primed BMDM, DMNQ 20 μM 16 hrs or MitoParaquat 5 μM 1 hr; for mPTP opening (calcein fluorescence): BMDM pretreated 16 h (CsA 1 μM, VBIT-4 10 μM, RuR 10 μM), LPS-primed, ATP or nigericin 1 h
Protocol: (§2) Bone marrow cells were cultured in high glucose DMEM supplemented with 10% FBS, 20% L929-cell conditioned medium, and 100 U/mL penicillin-streptomycin for 7-10 days at 37° C. with 5% CO2 (Hornung et al., 2008).
(§3) Mitochondrial membrane potential was measured using TMRM according to manufacturer's instructions. Briefly, BMDM were primed or not with LPS for 4 h, and further stimulated with ATP or nigericin for 60 minutes. Cells were incubated with 200 nM TMRM for 30 minutes at 37° C. After washing twice, fluorescence intensity was determined per manufacturer's instructions using a FilterMax F5 multimode plate reader (Molecular Devices). Mitochondrial reactive oxygen species (mtROS) were measured using MitoSOX (Invitrogen) as described (Xian et al., 2021). BMDM treated as indicated were loaded with 4 μM MitoSOX for 20 minutes. After washing with PBS twice, cells were resuspended in PBS and counted. Equal numbers of cells from different treatment groups were then plated onto 96-well plates for fluorescence reading. To quantify [Ca^2+]m by 5 μM Rhod-2 or intracellular Ca^2+ intensity by 1 μM Fluo-4, BMDM treated as indicated were loaded with the respective dyes according to manufacturer's instructions for 30 minutes. After washing twice, fluorescence intensity was determined using a FilterMax F5 multimode plate reader (Molecular Devices). To analyze mPTP opening by calcein-quenching assay, BMDM treated as indicated were loaded with calcein at 2 μM and CoCl2 at 160 μM for 30 minutes at 37° C. according to manufacturer's instructions. After washing twice, fluorescence intensity was determined per with a FilterMax F5 multimode plate reader (Molecular Devices).

[3] = test system: NLRP3 inflammasome; test: NLRP3 inflammasome activation (Casp1 p20 and mature IL-1β, IB and ELISA) in BMDM; type: cell-based, mouse; conditions: for activation of NLRP3 inflammasome by mtROS generator: BMDM −/+ LPS priming, DMNQ or MitoParaquat; for NLRP3 inflammasome activation (Casp1 activation and mature IL-1β secretion): LPS-primed BMDM, compound pretreatment 16 h, challenged with NLRP3 activators
Text: (§1) Paired antibodies (capture and detection) and standard recombinant mouse IL-1β and TNF were used to determine mouse cytokine concentrations according to manufacturer's instructions.

[4] = test system: BMDM; test: cytosolic Ox-mtDNA (8-OH-dG ELISA of cytosolic mtDNA) in BMDM; type: cell-based, mouse; conditions: for induction of Ox-mtDNA cytosolic release by mtROS generator: DMNQ 20 μM 16 hrs or MitoParaquat 5 μM 1 hr
Protocol: as §2
(§4) BMDM were stimulated as indicated. […] Briefly, BMDM were washed with PBS and harvested, 10% of which were saved for DNA extraction of whole cells. The remaining BMDM resuspended with pre-chilled mitochondrial extraction buffer 1 (220 mM mannitol, 70 mM sucrose, 20 mM HEPES-KOH, pH 7.5, 1 mM EDTA and 2 mg/mL bovine serum albumin) supplemented with a protease inhibitor cocktail and a phosphatase inhibitor cocktail were passed through a 25-G syringe (BD Biosciences) 20 times on ice. The homogenized cells were centrifuged at 1000×g for 15 minutes at 4° C. The supernatant was further centrifuged at 10,000×g for 10 minutes at 4° C. to pellet the mitochondria from supernatant cytosolic fraction. qPCR was performed after DNA purification with AllPrep DNA/RNA Mini Kit according to manufacturer's instructions, from both whole cell extracts and cytosolic fractions using mtDNA primers (D-loop, Cox1, non-NUMT), or after DNA purification from whole cell extracts using nuclear DNA primers (Tert, 18S, B2m). The Ct values obtained for mtDNA abundance in whole cell extracts served as normalization controls for the mtDNA values obtained from the cytosolic fractions. For the measurement of Ox-mtDNA, purified mtDNA was extracted from the cytosolic or mitochondrial fractions as indicated. The 8-OH-dG content was then quantified using 8-hydroxy 2-deoxyguanosine ELISA Kit, per manufacturer's instructions.

[5] = test system: BMDM; test: cytosolic mtDNA (qPCR after cellular fractionation) in BMDM; type: cell-based, mouse; conditions: for induction of mtDNA cytosolic release by mtROS generator: DMNQ 20 μM 16 hrs or MitoParaquat 5 μM 1 hr
Protocol: as §2, §4

[6] = test system: BMDM; test: 8-OH-dG content of mtDNA from mitochondria of BMDM; conditions: for mtDNA oxidation caused by mtROS generator: LPS-primed BMDM, DMNQ 20 μM 16 hrs or MitoParaquat 5 μM 1 hr
Protocol: as §2, §4

[7] = test system: BMDM; test: mtROS (MitoSOX) in BMDM; conditions: LPS-primed BMDM; for mtROS generated by the compound itself: DMNQ 20 μM 16 hrs or MitoParaquat 5 μM 1 hr, compared with ATP
Protocol: as §2, §3

[8] = test system: VDAC; test: VDAC cross-linking assay (VDAC oligomerization) in BMDM; type: cell-based, mouse; conditions: LPS-primed BMDM; for induction of VDAC oligomerization by mtROS generator: DMNQ 20 μM 16 hrs or MitoParaquat 5 μM 1 hr; for VDAC oligomerization induced by NLRP3 activator: compound pretreatment 16 h (VBIT-4 10 μM, CsA 1 μM, RuR 10 μM), ATP 4 mM or nigericin 10 μM 1 h
Protocol: BMDM treated as indicated were washed and collected in PBS, incubated for 40 min at 30° C. with the cross-linking reagent EGS (200 μM). Samples were subjected to SDS-PAGE and IB analyzed with anti-VDAC antibody.

[9] = test system: BMDM; test: stimulation of naive recipient BMDM by cell-free mtDNA (cytokine and ISG mRNA, qPCR); type: cell-based, mouse
Protocol: RNA was extracted using AllPrep DNA/RNA Mini kit, and cDNA was synthesized using SuperScript™ VILO™ cDNA Synthesis Kit. mRNA expression was determined by QPCR in a CFX96 thermal cycler (Biorad) as described (Xian et al., 2021). Data are presented in arbitrary units and calculated by the 2^(−ΔΔCT) method. Primer sequences were obtained from the NIH qPrimerDepot (http://mouseprimerdepot.nci.nih.gov) and provided by Integrated DNA technologies.
Extracellular DNA of donor macrophages (1500,000 cells per group) was isolated using QIAamp Circulating Nucleic Acid Kit according to manufacturer's instructions and then eluted in 300 μL distilled H2O and quantified using spectrophotometric analysis at 260/280 nm with Nanodrop. DNA amounts purified among the different treatment groups vary. The DNA amount secreted from LPS-primed donor BMDM is low, approximately at 0.1 μg. The amount of DNA released by LPS-primed donor BMDM challenged with ATP is about 1.3 μg, while the amount of DNA released by LPS-primed donor BMDM challenged with nigericin is around 2 μg. The amount of DNA secreted by LPS-primed donor BMDM challenged with MSU or alum is about 0.7 μg. Applicant used 5% of the prepared DNA for qPCR measurement of extracellular mtDNA and the remaining 95% were added to the recipient BMDM for analyzing the paracrine immunostimulatory effects.

[10] = test system: BMDM; test: total mtDNA (LPS-stimulated mtDNA synthesis, qPCR) in BMDM; type: cell-based, mouse; conditions: compound 10 μM 16 h, before or after LPS priming
Text: Nuclear DNA encoding telomerase reverse transcriptase (Tert), 18S ribosomal RNA and β2 microglobulin (B2m) was used for normalization.

[11] = test system: TNF; test: TNF secretion by BMDM (ELISA); type: cell-based, mouse; conditions: compound pretreatment 16 h, LPS priming, NLRP3 activators
Text: as §1

[12] = test system: NLRP3, pro-IL-1β, pro-casp1 and ASC; test: immunoblot of NLRP3 inflammasome component expression in BMDM lysates; type: cell-based, mouse; conditions: BMDM lysates before and after LPS priming, compound pretreatment 16 h
[13] = test system: BMDM; test: mitochondrial Ca2+ ([Ca^2+]m, Rhod-2) in BMDM; type: cell-based, mouse; conditions: LPS-primed BMDM, XeC 5 μM or RuR 10 μM 16 h
Protocol: After washing, BMDM were kept in the incubator for additional 30 minutes before confocal imaging (Nikon CSU-X1 Spinning Disk). Dynamic [Ca^2+]m images were captured at 10 seconds intervals for 4 minutes, with the addition of NLRP3 agonist at 40 seconds.

[14] = test system: BMDM; test: Ox-mtDNA and mtDNA in the intermembrane space (proteinase K digested mitochondria); conditions: supernatant of proteinase K digested mitochondria from treated BMDM
Protocol: To dissect the roles of VDAC oligomerization and mPTP in mtDNA escape, Applicant investigated whether Ox-mtDNA and mtDNA were trapped in the mitochondrial intermembrane space (IMS) of VBIT-4 treated BMDM. […] Using this method (FIG. 2F), Applicant measured relative Ox-mtDNA and mtDNA amounts in the IMS.
BMDM were stimulated as indicated. Cellular fractionation was carried out as previously described (Xian and Liou, 2019; Xian et al., 2019). Briefly, BMDM were washed with PBS and harvested, 10% of which were saved for DNA extraction of whole cells. The remaining BMDM resuspended with pre-chilled mitochondrial extraction buffer 1 (220 mM mannitol, 70 mM sucrose, 20 mM HEPES-KOH, pH 7.5, 1 mM EDTA and 2 mg/mL bovine serum albumin) supplemented with a protease inhibitor cocktail and a phosphatase inhibitor cocktail were passed through a 25-G syringe (BD Biosciences) 20 times on ice. The homogenized cells were centrifuged at 1000×g for 15 minutes at 4° C. […] The 8-OH-dG content was then quantified using 8-hydroxy 2-deoxyguanosine ELISA Kit, per manufacturer's instructions.

[15] = test system: BMDM; test: mitochondrial membrane potential (TMRM) in BMDM; type: cell-based, mouse; conditions: BMDM incubated with CsA or VBIT-4
Protocol: as §2
(§5) Mitochondrial membrane potential was measured using TMRM according to manufacturer's instructions. Briefly, BMDM were primed or not with LPS for 4 h, and further stimulated with ATP or nigericin for 60 minutes. Cells were incubated with 200 nM TMRM for 30 minutes at 37° C. After washing twice, fluorescence intensity was determined per manufacturer's instructions using a FilterMax F5 multimode plate reader (Molecular Devices). Mitochondrial reactive oxygen species (mtROS) were measured using MitoSOX (Invitrogen) as described (Xian et al., 2021). […] After washing with PBS twice, cells were resuspended in PBS and counted. Equal numbers of cells from different treatment groups were then plated onto 96-well plates for fluorescence reading. To quantify [Ca^2+]m by 5 μM Rhod-2 or intracellular Ca^2+ intensity by 1 μM Fluo-4, BMDM treated as indicated were loaded with the respective dyes according to manufacturer's instructions for 30 minutes. After washing twice, fluorescence intensity was determined using a FilterMax F5 multimode plate reader (Molecular Devices). […] After washing twice, fluorescence intensity was determined per with a FilterMax F5 multimode plate reader (Molecular Devices).

[16] = test system: STING; test: STING Ser365 phosphorylation (puncta by immunofluorescence, immunoblot) in BMDM; conditions: CsA 1 μM, VBIT-4 10 μM or FEN1-IN-4 10 μM 16 hrs
Protocol: as §2
Whole cell lysates were prepared in RIPA buffer (25 mM Tris-HCl pH 7.6, 150 mM NaCl, 1% NP-40, 1% sodium deoxycholate, 0.1% SDS) containing a protease inhibitor cocktail and a phosphatase inhibitor cocktail. Protein concentrations were determined using BCA Protein Assay Kit. Equal amounts of protein were separated by SDS-PAGE and transferred onto PVDF membranes, blocked in 5% BSA in 1×TBST for 1 h and incubated with primary antibodies overnight. Secondary antibodies were added for 1 h and detection was performed using Clarity Western ECL Substrate.
(§6) BMDM were fixed in 4% paraformaldehyde (PFA), permeabilized in 0.2% Triton X-100,and blocked in 1×PBS supplemented with 3% BSA. […] Nuclei were counterstained with DAPI.

[17] = test system: ASC; test: ASC speck formation (immunofluorescence) in BMDM
[18] = test system: BMDM; test: cytosolic Ca2+ (Fluo-4) in BMDM; type: cell-based, mouse; conditions: XeC 5 μM 16 h, ATP challenge
Protocol: as §2, §5

[19] = test system: BMDM; test: cytochrome C release (immunofluorescence) in BMDM; type: cell-based, mouse; conditions: BMDM treated with etoposide (positive control)
Protocol: as §2, §6

[20] = LPS-primed BMDM, compound 10 μM 16 h, ATP 4 mM 1 h
[21] = LPS-primed shCtrl or shOgg1 BMDM, CsA 1 μM or VBIT-4 10 μM 16 h, ATP 4 mM 1 h

## Nc1ncnc2c1ncn2[C@@H]1O[C@H](COP(=O)(O)OP(=O)(O)OP(=O)(O)O)[C@@H](O)[C@H]1O [ATP, adenosine triphosphate]
[1]
  amount of DNA released by LPS-primed donor BMDM challenged with the NLRP3 activator: about 1.3 μg

## COC1=C(OC)C(=O)c2ccccc2C1=O [DMNQ]
[2]
  induction of mPTP opening by mtROS generator: neither compound induced
[3]
  activation of NLRP3 inflammasome by mtROS generator: neither mtROS generator activated
[4]; LPS-primed BMDM
  induction of Ox-mtDNA cytosolic release by mtROS generator: neither compound induced
[5]; LPS-primed BMDM
  induction of mtDNA cytosolic release by mtROS generator: neither compound induced
[6]
  mtDNA oxidation caused by mtROS generator: augmented
[7]
  mtROS generated by the compound itself: as much mtROS as ATP
[8]
  induction of VDAC oligomerization by mtROS generator: neither compound induced

## O=c1[nH]c(=O)c2[nH]c([O-])nc2[nH]1.[Na+] [MSU, monosodium urate]
[1]
  amount of DNA released by LPS-primed donor BMDM challenged with the NLRP3 activator: about 0.7 μg

## O=C1NC(=NS(=O)(=O)c2cccc3ccccc23)S/C1=C\c1ccc(Br)cc1 [Pitstop2]
[9]; recipient BMDM with Pitstop 2 (2 uM), 24 hrs with extracellular DNA
  cytokine mRNA induction by extracellular mtDNA: diminish

## N.N.N.N.N.N.N.N.N.N.N.N.N.N.[Cl-].[Cl-].[Cl-].[Cl-].[Cl-].[Cl-].[O-2].[O-2].[Ru+3].[Ru+3].[Ru+4] [RuR, ruthenium red]
[2]
  mPTP opening (calcein fluorescence): blocked
[3]
  NLRP3 inflammasome activation (Casp1 activation and mature IL-1β secretion): suppressed
[10]
  LPS-stimulated mtDNA synthesis (total mtDNA): did not inhibit
[11]
  TNF secretion: no effect
[4]; [20]
  cytosolic Ox-mtDNA (release): reducing
[5]; [20]
  cytosolic mtDNA release: reducing
[12]
  NLRP3, pro-IL-1β, pro-casp1 and ASC expression: no effect
[13]
  ATP- or nigericin-induced [Ca^2+]m pulse (Rhod-2 fluorescence): disrupted
[8]
  VDAC oligomerization induced by NLRP3 activator: blocked

## O=C(CC(CO)N1CCN(c2ccc(OC(F)(F)F)cc2)CC1)Nc1ccc(Cl)cc1 (stereo not drawn) [VBIT-4]
[9]; recipient BMDM incubated 24 h with DNA from compound-pretreated donor BMDM, cytokine and ISG mRNAs
  immunostimulatory activity of DNA secreted by treated donor BMDM: inhibited
[2]
  mPTP opening (calcein fluorescence): little effect on calcein fluorescence
[3]
  NLRP3 inflammasome activation (Casp1 activation and mature IL-1β secretion): inhibited
[14]
  amount of Ox-mtDNA within the IMS: elevated
  amount of mtDNA (different regions of the genome) within the IMS: elevated
[1]; LPS-primed donor BMDM pretreated with compound, challenged with ATP or nigericin
  cell-free mtDNA release: inhibited
[11]
  TNF secretion: without affecting
[15]
  mitochondrial depolarization upon NLRP3 activator challenge: abrogated
[4]; [21]
  reduction of cytosolic pool of Ox-mtDNA: 81±4%
[16]; LPS-primed BMDM, ATP or nigericin
  formation of Ser^365 phosphorylated STING puncta: diminished
[16]; LPS-primed Nlrp3−/− BMDM, ATP
  ATP-induced STING Ser^365 phosphorylation (immunoblot) in Nlrp3−/− BMDM: completely blocked
[5]; [21]
  reduction of cytosolic pool of mtDNA: 50-60%
[6]; LPS-primed BMDM pretreated with CsA or VBIT-4 16 h, ATP stimulation
  reduction of mtDNA oxidation (8-OH-dG in mitochondrial mtDNA): 45±5.0%
[17]; BMDM, VBIT-4 10 μM 16 h, LPS-primed, ATP or nigericin 1 h
  ASC speck formation: inhibited
[7]; compound pretreatment 16 h, ATP or nigericin
  mtROS production: modest decline
[12]
  NLRP3, pro-IL-1β, pro-casp1 and ASC expression: without affecting
[8]
  VDAC oligomerization induced by NLRP3 activator: blocked

## C1CCC[C@H]2CCCN3CC[C@@H](CCCCCC[C@@H]4CCCN5CC[C@@H](CC1)O[C@@H]45)O[C@@H]23 [XeC, xestospongin C]
[13]
  ATP- or nigericin-induced [Ca^2+]m pulse (Rhod-2 fluorescence): had no effect
[18]
  cytosolic Ca^2+ (Fluo-4 fluorescence): decreased

## COc1cc([C@@H]2c3cc4c(cc3[C@@H](O[C@@H]3O[C@@H]5CO[C@@H](C)O[C@H]5[C@H](O)[C@H]3O)[C@H]3COC(=O)[C@H]23)OCO4)cc(OC)c1O [etoposide]
[19]
  cytochrome C release: induced cytochrome C release
[17]; BMDM treated with etoposide
  ASC speck formation triggered by apoptosis inducer: did not trigger

## C[n+]1ccc(-c2cc[n+](CCCCCCCCCC[P+](c3ccccc3)(c3ccccc3)c3ccccc3)cc2)cc1.[I-].[I-].[I-] [mitoParaquat]
[2]
  induction of mPTP opening by mtROS generator: neither compound induced
[3]
  activation of NLRP3 inflammasome by mtROS generator: neither mtROS generator activated
[4]; LPS-primed BMDM
  induction of Ox-mtDNA cytosolic release by mtROS generator: neither compound induced
[5]; LPS-primed BMDM
  induction of mtDNA cytosolic release by mtROS generator: neither compound induced
[6]
  mtDNA oxidation caused by mtROS generator: augmented
[7]
  mtROS generated by the compound itself: as much mtROS as ATP
[8]
  induction of VDAC oligomerization by mtROS generator: neither compound induced

## CO[C@@H]1C[C@@H](C[C@H]2CC[C@H](C)[C@H]([C@@H](C)C(=O)O)O2)O[C@]2(O[C@](C)([C@H]3CC[C@@](C)([C@@H]4O[C@@H]([C@H]5O[C@@](O)(CO)[C@H](C)C[C@@H]5C)C[C@@H]4C)O3)C[C@H]2C)[C@@H]1C [nigericin]
[1]
  amount of DNA released by LPS-primed donor BMDM challenged with the NLRP3 activator: around 2 μg
